Assay results as given in patent US7579348B2, “Derivatives of 8-substituted xanthines” (PGxHealth, LLC, priority 2005, dated 2009).

These molecules were tested against T1, rat A2B receptors (rA2B) (Rattus norvegicus, UniProt P29276) (assay: Radioligand binding, displacement of specific [125I]ABOPX binding). Settings: displacement of specific [125I]ABOPX binding at rat A2B receptors expressed in HEK-293 cells; read-out: RatA2B Ki.
T1 construct: expressed in transfected cells; membranes)
T1 sequence (P29276 1-332): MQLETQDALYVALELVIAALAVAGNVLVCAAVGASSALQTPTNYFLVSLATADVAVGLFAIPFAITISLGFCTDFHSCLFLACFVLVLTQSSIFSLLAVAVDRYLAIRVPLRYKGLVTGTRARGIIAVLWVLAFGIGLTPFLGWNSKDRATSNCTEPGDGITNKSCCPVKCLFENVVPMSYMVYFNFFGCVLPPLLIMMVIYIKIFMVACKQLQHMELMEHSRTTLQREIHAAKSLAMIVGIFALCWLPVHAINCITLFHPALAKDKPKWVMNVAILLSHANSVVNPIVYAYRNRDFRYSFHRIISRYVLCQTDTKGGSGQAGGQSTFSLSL
From the text: The rat A2B receptor cDNA was subcloned into the expression plasmid pDoubleTrouble using techniques described in Robeva, A. et al., Biochem. Pharmacol., 51, 545-555 (1996). The plasmid was amplified in competent JM109 cells and plasmid DNA isolated using Wizard Megaprep columns (Promega Corporation, Madison, Wis.). A2B adenosine receptors were introduced into HEK-293 cells by means of Lipofectin as described in Felgner, P. L. et al., Proc. Natl. Acad. Sci. USA, 84, 7413-7417 (1987).
Transfected HEK cells were grown under 5% CO2/[…] humidified atmosphere at a temperature of 37° C. Colonies were selected by growth of cells in 0.6 mg/mL G418. Transfected cells were maintained in DMEM supplemented with Hams F 12 nutrient mixture (1/1), 10% newborn calf serum, 2 mM glutamine and containing 50 IU/mL penicillin, […], and 0.2 mg/mL Geneticin (G418, Boehringer Mannheim). Cells were cultured in 10 cm diameter round plates and subcultured when grown confluent (approximately after 72 hours).
At A2B receptors: Confluent monolayers of HEK-A2B cells were washed with PBS followed by ice cold Buffer A (10 mM HEPES, 10 mM EDTA, pH 7.4) with protease inhibitors (10 μg/mL benzamidine, 100 μM phenylmethanesulfonyl fluoride, and 2 μg/mL of each aprotinin, pepstatin and leupeptin). The cells were homogenized in a Polytron (Brinkmann) for 20s, centrifuged at 30,000 ×g, and the pellets washed twice with buffer HE (10 mM HEPES, 1 mM EDTA, pH 7.4 with protease inhibitors). The final pellet was resuspended in buffer HE, supplemented with 10% sucrose and frozen in aliquots at −80° C. For binding assays membranes were thawed and diluted 5-10 fold with HE to a final protein concentration of approximately 1 mg/mL. To determine protein concentrations, membranes, and bovine serum albumin standards were dissolved in 0.2% NaOH/0.01% SDS and protein determined using fluorescamine fluorescence. Stowell, C. P. et al., Anal. Biochem., 85, 572-580 (1978).
Saturation binding assays for rat A2B adenosine receptors were performed with [^3H]ZM214,385 (17 Ci/mmol, Tocris Cookson, Bristol UK) (Ji, X. et al., Drug Design Discov., 16, 216-226 (1999)) or ^125I-ABOPX (2200 Ci/mmol). To prepare 125I-ABOPX, 10 μL of 1 mM ABOPX in methanol/1 M NaOH (20:1) was added to 50 μL of 100 mM phosphate buffer, pH 7.3. One or 2 mCi of Na^125I was added, followed by 10 μL of 1 mg/mL chloramine-T in water. After incubation, 20 minutes at room temperature, 50 μL of 10 mg/mL Na-metabisulfite in water was added to quench the reaction. The reaction mixture was applied to a C18 HPLC column, eluting with a mixture of methanol and 5 mM phosphate, pH 6.0. After 5 min at 35% methanol, the methanol concentration was ramped to 100% over 15 min. Unreacted ABOPX eluted in 11-12 minutes; ^125I-ABOPX eluted at 18-19 min in a yield of 50-60% with respect to the initial ^125I.
In equilibrium binding assays the ratio of ^127I/^125I-ABOPX was 10-20/1. Radioligand binding experiments were performed in triplicate with 20-25 μg membrane protein in a total volume of 0.1 mL HE buffer supplemented with 1 U/mL adenosine deaminase and 5 mM MgCl2. The incubation time was 3 h at 21° C. Nonspecific binding was measured in the presence of 100 μM NECA. Competition experiments were carried out using 0.6 nM ^125I-ABOPX. Membranes were filtered on Whatman GF/C filters using a Brandel cell harvester (Gaithersburg, Md.) and washed 3 times over 15-20 seconds with ice cold buffer (10 mM Tris, 1 mM MgCl2, pH 7.4). Bmax and KD values were calculated by Marquardt's nonlinear least squares interpolation for single a site binding models. Marquardt, D. M., J. Soc. Indust. Appl. Math., 11, 431-441.21 (1963). Ki values for different compounds were derived from IC50 values as described. Linden, J., J. Cycl. Nucl. Res., 8, 163-172 (1982). Data from replicate experiments are tabulated as means ±SEM. […]

SMILES	Ki [nM]
CCCn1c(=O)c2[nH]c(-c3ccc(NN)nc3)nc2n(CCC)c1=O [Compound 1, 1,3-Dipropyl-8-[6-hydrazino-3-pyridyl]xanthine]	100 to 500
CCn1c(=O)c2[nH]c(-c3ccc(-n4nc(C)cc4-c4ccccc4)nc3)nc2n(CC)c1=O [Compound 2, 1,3-diethyl-8-(6-(3-methyl-5-phenyl-1H-pyrazol-1-yl)pyridin-3-yl)-1H-purine-2,6(3H,7H)-dione]	500 to 5000
CCn1c(=O)c2[nH]c(-c3ccc4nnc(C(F)(F)F)n4c3)nc2n(CC)c1=O [Compound 3, 1,3-Diethyl-8-(3-(trifluoromethyl)-[1,2,4]triazolo[4,3,a]pyridin-6-yl)-1H-purine-2,6(3H,7H)-dione]	100 to 500
CCn1c(=O)c2[nH]c(-c3ccc4nnc(C)n4c3)nc2n(CC)c1=O [Compound 4, 1,3-Diethyl-8-(3-methyl-[1,2,4]triazolo[4,3,a]pyridin-6-yl)-1H-purine-2,6(3H,7H)-dione]	100 to 500
CCCn1c(=O)c2[nH]c(-c3ccc(-n4nc(C)cc4-c4ccccc4)nc3)nc2n(CCC)c1=O [Compound 5, 8-(6-(3-methyl-5-phenyl-1H-pyrazol-1-yl)pyridin-3-yl)-1,3-Dipropyl-1H-purine-2,6(3H,7H)-dione]	100 to 500
CCCn1c(=O)c2[nH]c(-c3ccc(-n4nc(C(F)(F)F)cc4-c4cccs4)nc3)nc2n(CCC)c1=O [Compound 8, 8-(6-(3-(trifluoromethyl)-5-(thiophen-2-yl)-1H-pyrazol-1-yl)pyridin-3-yl)-1,3-Dipropyl-1H-purine-2,6(3H, 7H)-dione]	100 to 500
CCCn1c(=O)c2[nH]c(-c3ccc(-n4nc(C(F)(F)F)cc4-c4ccco4)nc3)nc2n(CCC)c1=O [Compound 9, 8-(6-(3-(trifluoromethyl)-5-(furan-2-yl)-1H-pyrazol-1-yl)pyridin-3-yl)-1,3-Dipropyl-1H-purine-2,6(3H, 7H)-dione]	< 100
CCCn1c(=O)c2[nH]c(-c3ccc(-n4nc(C)cc4C)nc3)nc2n(CCC)c1=O [Compound 10]	100 to 500
CCCn1c(=O)c2[nH]c(-c3ccc(-n4nc(C(=O)OCC)cc4C)nc3)nc2n(CCC)c1=O [Compound 13]	100 to 500
CCCn1c(=O)c2[nH]c(-c3ccc4nncn4c3)nc2n(CCC)c1=O [Compound 14, 1,3-Dipropyl-8-([1,2,4]triazolo[4,3,a]pyridin-6-yl)-1H-purine-2,6(3H, 7H)-dione]	100 to 500
CCCn1c(=O)c2[nH]c(-c3ccc(-n4nc(-c5ccccc5)cc4N)nc3)nc2n(CCC)c1=O [Compound 15, 8-(6-(5-Amino-3-phenyl-1H-pyrazol-1-yl)pyridin-3-yl)-1,3-dipropyl-1H-purine-2,6(3H, 7H)-dione]	< 100
CCCn1c(=O)c2[nH]c(-c3ccc(-n4nc(-c5ccco5)cc4N)nc3)nc2n(CCC)c1=O [Compound 16, 8-(6-(5-Amino-3-(furan-2-yl)-1H-pyrazol-1-yl)pyridin-3-yl)-1,3-dipropyl-1H-purine-2,6(3H, 7H)-dione]	< 100
